What was measured:
Format in all cases: in vivo, human
[1] = test system: patient with major clinical depression; experiment: Treatment of patient with major clinical depression via transdermal patch; conditions: Example Seven
Method: A person with a family history of depression and has a personal history of major clinical depression. Hospitalized in 1975 and again in 1990 with major episodes of depression including extreme suicidal ideations. Numerous medications were tried to help stabilize their condition. Since 1990 they have been taking 25 mg to 75 mg of nortriptyline to manage their depression and reports having to increase the dose to has high as 100 mg during stressful life events.
The patient reported suffering from the following symptoms despite taking nortriptyline:
They also reported very vivid dreams and they were able to recall the details of their dreams easily. […] Their constipation and dry mouth have resolved as well. They also have reported that their hair is regaining its original pigment and that their eyebrows are coming in darker and thicker resembling their younger years.

[2] = test system: multiple sclerosis (MS) patients; experiment: Treatment of multiple sclerosis patients via transdermal patch; conditions: Example Three, four MS patients (2 female, 2 male), 0.2 mcg transdermal patch one day, two days off, repeated
[3] = test system: male MS patients with erectile dysfunction; experiment: Sexual function in male MS patients with erectile dysfunction; conditions: Example Six
Description: Two male MS patients, a person and a person, experienced decreased libido, decreased penile sensation, and erectile dysfunction. […] These improvements in sexual function have persisted while continuing on the treatment. […] Their ability to achieve a full erection numerous times following repeated ejaculations was restored the same day that they resumed the treatment.

fibromyalgia patient = experiment: Treatment of fibromyalgia patient via transdermal patch; conditions: Example Five
Description: (§1) Accordingly, material suitable for transdermal application can be prepared using a 1:1000 dilution of methyl 4-imidazolecarboxylate CAS number 17325-26-7, available from Sigma-Aldrich Corporation), combined with a pluronic lecithin organogel transdermal penetration enhancing vehicle, with hydrochloric acid being added to maintain the pH of the solution that or below 3. The resultant mixture may be dried and deposited on or applied to a suitable adhesive backing to form a transdermal patch, covered with quick release paper or other layer for protection prior to use.
A person who has been suffering from fibromyalgia for 10 years was treated in accordance with the method of the present invention. […] The patient has reported only two incidences of increased fatigue, which lasted only one day per incidence, and these incidences were preceded by very stressful life events.

[4] = test system: multiple sclerosis (MS) patients; experiment: Treatment of multiple sclerosis patients via transdermal patch; conditions: for outcome on MS symptoms with cyclic dosing schedule: repeated
Description: as §1
The following illustrative examples relate to actual practice of the invention described above in the treatment of multiple sclerosis.
A person who had been suffering from multiple sclerosis (MS) for 51 years was treated in accordance with the method of the present invention. The patient suffered from debilitating intention tremors in their hands, poor balance, garbled speech, right foot tingling and right leg weakness, left foot tingling and weakness. Within 60 minutes of applying the first dose of 0.125 mcg methyl 4-imidazolecarboxylate via transdermal patch application, the intention tremors were alleviated, but noted some waxing and waning of other symptoms throughout the first day of treatment. […] After the third consecutive day of treatment, the patient had no symptoms of MS and they were able to remain free of symptoms for the next 36 hours without applying the treatment of the present invention. After 36 hours of not administering the treatment, they reported that their MS symptoms were returning, they then applied 0.125 mcg methyl 4-imidazolecarboxylate via transdermal patch and their MS symptoms were alleviated within 30 minutes of applying the treatment. They administered 0.125 mcg methyl 4-imidazolecarboxylate per day for next 2 consecutive days and was again able to remain free of all of the MS symptoms while wearing the transdermal patch containing the treatment dose and then remained free of symptoms for the following 2 days not administering the treatment.
A person who has been suffering from multiple sclerosis (MS) for 21 years was treated in accordance with the method of the present invention. The patient suffered from left foot tingling and numbness, left hand tingling and numbness, left leg weakness, slurred speech, cognitive impairment, fatigue, facial/jaw pain, and heaviness in limbs. […] The patient remained free of all MS symptoms with the administration of 0.15 mcg methyl 4-imidazolecarboxylate per day for the next two consecutive days. The patient was able to remain free of MS symptoms for 36 hours following the two consecutive days of application of present invention without use of treatment. After 36 hours of not using the present invention treatment, the patient experienced left foot tingling. The patient then applied 0.15 mcg methyl 4-imidazolecarboxylate per day via transdermal patch for two consecutive days and all MS symptoms alleviated. The patient was able to remain free of all MS symptoms for the next 4 days without applying the present invention treatment. […] The following 5 days the patient remained free of all MS symptoms without administering treatment of present invention.
Each patient has continued to maintain such improvements in their symptoms of MS by applying 0.2 mcg methyl 4-imidazolecarboxylate via transdermal patch for one day followed by two consecutive days without administering treatment and then repeating such dosing schedule.

patients = experiment: Transdermal dosage range and regimen observations in patients
Method: As will be described in the following examples, dosages in the range from about 0.1 mcg to about 0.2 mcg per day have been found generally preferable, with some variation on a patient by patient basis. […] While the mechanism behind this is not fully understood, it is believed that the effectiveness of the periodic regimen, with a resting period of about 48 hours between applications, may be due to an associated half life period (within the body of the patient) of the material or an agent that is produced by the material.

[5] = 0.2 mcg transdermal patch one day on, two days off

CNCCC=C1c2ccccc2CCc2ccccc21 [nortriptyline, reference compound]
patient-reported side effects ([1]; 25 mg to 75 mg (up to 100 mg) nortriptyline since 1990): dry mouth and constipation

COC(=O)c1cnc[nH]1 [methyl 4-imidazolecarboxylate]
patient-reported change in MS symptoms (bladder function, fatigue, tingling and numbness, balance, cognition and memory, walking, sleep) [2]: improvement in their MS symptoms | symptoms of depression while continuing on the treatment [1, 5]: remained free of all symptoms of depression | patient-reported effect the first day of treatment ([1]; person, 0.2 mcg): increased energy | effect of stopping the treatment for one week ([3]; patient, restored the same day treatment resumed): decrease in libido and inability in achieving a full erection | time to achieve a full erection after first ejaculation ([3]; two male MS patients, 0.2 mcg): 1 to 3 min | patient-reported sexual function within three days of first administration ([3]; two male MS patients, 0.2 mcg (entry two)): increased libido, full erections, increased penile sensation | maintained outcome with cyclic dosing schedule (fibromyalgia patient; [5]): remained free of pain, and improved mental clarity | incidences of increased fatigue during treatment (fibromyalgia patient; each lasting one day, preceded by very stressful life events): two | patient-reported effect within hours of first dose (fibromyalgia patient; person with fibromyalgia, first dose 0.2 mcg): decreased pain, decreased fatigue and improved mental clarity | MS symptoms by the second day of treatment ([4]; Example One, 0.125 mcg per day, transdermal patch): All MS symptoms were alleviated | time to alleviation of returned MS symptoms after re-applying treatment ([4]; Example One, 0.125 mcg transdermal patch after 36 hours without treatment): ≤ 30 min | outcome on MS symptoms with cyclic dosing schedule ([4]; Example One, 0.2 mcg one day followed by 2 consecutive days without treatment): successfully alleviated all of the MS symptoms | time to alleviation of intention tremors after first dose ([4]; Example One, MS patient, first dose 0.125 mcg, transdermal patch): ≤ 60 min | time free of symptoms not administering the treatment ([4]; Example One, after re-application and 2 further consecutive days of 0.125 mcg per day): 2 days | time free of symptoms without applying the treatment ([4]; Example One, after third consecutive day of 0.125 mcg treatment): 36 h | effect on returned left foot tingling after single application ([4]; Example Two, 0.15 mcg transdermal patch on fifth day without treatment): symptoms resolved immediately | outcome on MS symptoms with cyclic dosing schedule ([4]; Example Two, 0.2 mcg transdermal patch one day, 2 consecutive days without treatment): continued to remain free of all MS symptoms | time to alleviation of all MS symptoms after first dose ([4]; Example Two, MS patient, first dose 0.15 mcg, transdermal patch): ≤ 30 min | time free of all MS symptoms without applying treatment ([4]; Example Two, after second course of 0.15 mcg per day for two consecutive days): 4 days | time free of MS symptoms without use of treatment ([4]; Example Two, following first dose and two consecutive days of 0.15 mcg per day): 36 h | time free of all MS symptoms without administering treatment ([4]; Example Two, following single 0.15 mcg application): 5 days | effectiveness of periodic regimen (patients; approximately 0.2 mcg once every three days): especially effective for the majority of patients | adverse effect at high dosages (patients; transdermal, dosages above approximately 3.0 mcg per day): negative cognitive effects, in a form of mental haziness or sleepiness | effect observed at low dosages (patients; transdermal, dosages below about 0.01 mcg per day): negligible effect

Source: US7666893B2, “Method for treatment of neurodegenerative disorders” (MedDEV Inc., priority 2006, dated 2010)
